Test systems include HCT-116; SW-620; SF-539; SNB-75; A498; UACC-257; SK-OV-3; SN12C; BT-549; HOP-92; PC-3; NCI-H522; SR; OVCAR-4; CAKI-1; SK-MEL-5; MDA-MB-231; Malme-3M; M14; UACC-62.
Assay in all cases: inhibition of tumour cell growth, NCI panel, 48 h

Counter-ions that a name gives are not always drawn.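 Following 48 hours of exposure in 96-well plates, responses at five concentrations were used to interpolate endpoints linearly. Here, GI50 denotes the concentration required for 50% inhibition of growth.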 The source made the active and inactive calls. Cut-off read from the data, not from the text of the source: active = GI50 up to about 1.1 µM and inactive = higher.

As to `Cc1cc(C)c(/C=C2\C(=O)Nc3ccccc32)[nH]1` [SEMAXANIB], the GI50 in the assay with HCT-116 was 72.9 µM (inactive); in the assay on SW-620 it was > 87.7 µM (inactive); in the assay with SF-539, > 100 µM (inactive); in the assay on SNB-75 it was 0.906 µM (active); with A498, > 100 µM (inactive); with UACC-257, > 100 µM (inactive). In addition, the GI50 in the assay with SK-OV-3 is > 66.7 µM (inactive); with SN12C, > 100 µM (inactive); in the assay on BT-549, > 100 µM (inactive); in the assay on HOP-92, 48.3 µM (inactive); in the assay with PC-3 it was > 100 µM (inactive); with NCI-H522 it was > 49.9 µM (inactive). Further, the GI50 in the assay with SR was 17.9 µM (inactive); with OVCAR-4 it was 52.5 µM (inactive); in the assay with CAKI-1, > 59.2 µM (inactive); in the assay on SK-MEL-5 it was > 90.8 µM (inactive); in the assay with MDA-MB-231, > 62.1 µM (inactive); in the assay on Malme-3M it was > 58.5 µM (inactive). Also, the GI50 with M14 is 69 µM (inactive); with UACC-62, > 100 µM (inactive).

As for `Cc1c(S(=O)(=O)c2ccccc2)c(N)n(CCN(C)C)c1C`, the GI50 is > 100 µM (inactive) in the assay with HCT-116; > 100 µM (inactive) in the assay on SW-620; 28.9 µM (inactive) with SF-539; > 100 µM (inactive) in the assay with SNB-75; > 100 µM (inactive) with A498; > 100 µM (inactive) in the assay on UACC-257. The GI50 was > 100 µM (inactive) with SK-OV-3; > 100 µM (inactive) in the assay with SN12C; 36.1 µM (inactive) with BT-549; > 100 µM (inactive) in the assay on HOP-92; 86.9 µM (inactive) in the assay with PC-3; > 100 µM (inactive) with NCI-H522. Besides, the GI50 in the assay on SR, with OVCAR-4, with CAKI-1, in the assay on SK-MEL-5, in the assay with MDA-MB-231 and with Malme-3M was > 100 µM (inactive) throughout. In addition, the GI50 with M14 and with UACC-62 was > 100 µM (inactive) throughout.

For the molecule `CCCCOC(=O)CC(CC(=O)OCCCC)(OC(C)=O)C(=O)OCCCC` [ACETYLTRIBUTYL CITRATE], the GI50 in the assay with HCT-116 is 56.4 µM (inactive); with SW-620 it was > 130 µM (inactive); in the assay on SF-539, > 100 µM (inactive); in the assay with SNB-75, 8.49 µM (inactive); in the assay on A498, > 200 µM (inactive); in the assay on UACC-257 it was 47.9 µM (inactive). For the same molecule, the GI50 is > 200 µM (inactive) in the assay with SK-OV-3; > 164 µM (inactive) in the assay on SN12C; > 200 µM (inactive) with BT-549; 72.4 µM (inactive) in the assay with HOP-92; 132 µM (inactive) in the assay on PC-3; 47.5 µM (inactive) with NCI-H522. Also, the GI50 in the assay with SR is 14.7 µM (inactive); with OVCAR-4, > 81.5 µM (inactive); in the assay with CAKI-1, > 200 µM (inactive); in the assay with SK-MEL-5, 16.1 µM (inactive); in the assay with MDA-MB-231, > 200 µM (inactive); in the assay with Malme-3M it was 197 µM (inactive). The GI50 in the assay with M14 was > 200 µM (inactive); in the assay with UACC-62, 117 µM (inactive).

As to `CS(=O)(=O)OCCCNCCCOS(C)(=O)=O`, the GI50 with HCT-116 was 1440 µM (inactive); in the assay on SW-620 it was 1140 µM (inactive); with SF-539, 1270 µM (inactive); in the assay with SNB-75, 1580 µM (inactive); in the assay with A498 it was 1330 µM (inactive); in the assay with UACC-257, 1850 µM (inactive). The GI50 is 1550 µM (inactive) in the assay with SK-OV-3; 533 µM (inactive) in the assay on SN12C; 1270 µM (inactive) in the assay with BT-549; 957 µM (inactive) in the assay on HOP-92; 1270 µM (inactive) in the assay on PC-3; 1850 µM (inactive) in the assay on NCI-H522. In addition, the GI50 in the assay with SR is 148 µM (inactive); in the assay on OVCAR-4, 2130 µM (inactive); in the assay with CAKI-1, 650 µM (inactive); in the assay with SK-MEL-5 it was 1550 µM (inactive); in the assay with MDA-MB-231, 1860 µM (inactive); in the assay with Malme-3M, 1590 µM (inactive). The figures for the GI50 in the assay on M14 and in the assay on UACC-62 were 753 µM (inactive) and 393 µM (inactive), respectively.

As for `CC1(C)CC(=O)c2c(nc3c4c([nH]c(-c5ccc([N+](=O)[O-])cc5)c24)CC(C)(C)C3)C1`, the GI50 in the assay on HCT-116 is 41.1 µM (inactive); in the assay on SW-620, 47.4 µM (inactive); in the assay on SF-539, 65.3 µM (inactive); in the assay on SNB-75, 24.8 µM (inactive); in the assay on A498, 4.26 µM (inactive); with UACC-257, 67 µM (inactive). Also, the GI50 is > 100 µM (inactive) with SK-OV-3; 53.3 µM (inactive) in the assay on SN12C; 34 µM (inactive) in the assay with BT-549; 19.9 µM (inactive) with HOP-92; 31.7 µM (inactive) with PC-3; 48.5 µM (inactive) in the assay on NCI-H522. In addition, the GI50 in the assay on SR is 1.07 µM (active); with OVCAR-4 it was 34 µM (inactive); in the assay with CAKI-1 it was 44.1 µM (inactive); in the assay on SK-MEL-5 it was 26.2 µM (inactive); in the assay on MDA-MB-231 it was 43.6 µM (inactive); in the assay with Malme-3M, > 100 µM (inactive). Moreover, the GI50 is 27.7 µM (inactive) in the assay with M14 and 21.7 µM (inactive) in the assay on UACC-62.

In the case of `CCOC(=O)/C(SC#N)=C(/N)N1CCCC1`, the GI50 in the assay on HCT-116 was > 100 µM (inactive); in the assay with SW-620, > 100 µM (inactive); in the assay with SF-539, > 100 µM (inactive); in the assay on SNB-75 it was > 94.8 µM (inactive); in the assay on A498, > 60 µM (inactive); with UACC-257, > 100 µM (inactive). For the same molecule, the GI50 in the assay on SK-OV-3, in the assay with SN12C, in the assay on BT-549, with HOP-92, in the assay on PC-3 and in the assay with NCI-H522 was > 100 µM (inactive) in each case. The GI50 with SR, in the assay on OVCAR-4, with CAKI-1, in the assay with SK-MEL-5, in the assay on MDA-MB-231 and in the assay with Malme-3M was > 100 µM (inactive) each time. Further, the GI50 in the assay with M14 and in the assay on UACC-62 was > 100 µM (inactive) throughout.

As to `Cn1c(=O)c2nc3c(=O)n(C)c(=O)n(CC(N)=O)c3nc2n(C)c1=O`, the GI50 in the assay with HCT-116, in the assay with SW-620, in the assay with SF-539, in the assay on SNB-75, with A498 and with UACC-257 was > 100 µM (inactive) in each case. Further, the GI50 in the assay on SK-OV-3, in the assay with SN12C, in the assay on BT-549, in the assay on HOP-92, with PC-3 and in the assay on NCI-H522 was > 100 µM (inactive) in each case. In addition, the GI50 in the assay on SR, with OVCAR-4, in the assay with CAKI-1, with SK-MEL-5, with MDA-MB-231 and in the assay with Malme-3M was > 100 µM (inactive) throughout. Also, the GI50 with M14 and with UACC-62 was > 100 µM (inactive) each time.

`Clc1ccc(OCc2nnc3sc(-c4ccc(-c5ccc(Cl)cc5Cl)o4)nn23)c(Cl)c1`: the GI50 was 15.7 µM (inactive) in the assay with HCT-116; 34.7 µM (inactive) in the assay on SW-620; 14.8 µM (inactive) with SF-539; 15 µM (inactive) with SNB-75; 17.4 µM (inactive) in the assay on A498; 18.4 µM (inactive) with UACC-257. Moreover, the GI50 with SK-OV-3 is 19.1 µM (inactive); with SN12C, 18.9 µM (inactive); with BT-549, 21.4 µM (inactive); in the assay with HOP-92, 18.9 µM (inactive); with PC-3, 18.1 µM (inactive); in the assay with NCI-H522 it was 17.8 µM (inactive). Further, the GI50 with SR is 2.58 µM (inactive); with OVCAR-4, 35.5 µM (inactive); in the assay on CAKI-1, 28.7 µM (inactive); in the assay with SK-MEL-5 it was 20.1 µM (inactive); with MDA-MB-231, 16.3 µM (inactive); in the assay on Malme-3M, 18.8 µM (inactive). In addition, the GI50 was 25.5 µM (inactive) in the assay with M14 and 25.7 µM (inactive) with UACC-62.

Turning to `CCC1(O)CC(O)c2c(O)c3c(c(O)c2C1C(=O)OC)C(=O)c1cccc(O)c1C3=O` (stereo not given), the GI50 with HCT-116 is 2.89 µM (inactive); in the assay on SW-620 it was 4.67 µM (inactive); with SF-539, 3.85 µM (inactive); in the assay on SNB-75 it was 6.31 µM (inactive); in the assay with A498 it was 3.78 µM (inactive); with UACC-257 it was 3.65 µM (inactive). The GI50 in the assay on SK-OV-3 is 4.49 µM (inactive); in the assay with SN12C, 2.92 µM (inactive); in the assay with BT-549 it was 6.85 µM (inactive); with HOP-92 it was 9.31 µM (inactive); in the assay on PC-3 it was 2.86 µM (inactive); in the assay on NCI-H522, 1.75 µM (inactive). Further, the GI50 in the assay on SR was 1.12 µM (inactive); in the assay on OVCAR-4, 2.96 µM (inactive); with CAKI-1, 3.43 µM (inactive); in the assay on SK-MEL-5 it was 1.84 µM (inactive); with MDA-MB-231, 2.9 µM (inactive); in the assay with Malme-3M, 1.94 µM (inactive). The figures for the GI50 in the assay on M14 and with UACC-62 were 2.87 µM (inactive) and 3 µM (inactive), respectively.

Turning to `CN(C)c1cccc(/C=C(\C#N)c2ccccc2)c1`, the GI50 in the assay on HCT-116 is 0.396 µM (active); in the assay on SW-620 it was 0.316 µM (active); with SF-539, 0.587 µM (active); in the assay on SNB-75, 1.39 µM (inactive); in the assay on A498, 2.11 µM (inactive); in the assay with UACC-257, 1.01 µM (active). The GI50 in the assay on SK-OV-3 is 1.11 µM (active); with SN12C, 1.15 µM (inactive); with BT-549 it was 21.3 µM (inactive); in the assay with HOP-92 it was 2.94 µM (inactive); in the assay with PC-3 it was 1.12 µM (active); with NCI-H522, 0.273 µM (active). Moreover, the GI50 in the assay with SR is 0.0879 µM (active); in the assay with OVCAR-4, 17.1 µM (inactive); in the assay with CAKI-1, 0.771 µM (active); in the assay on SK-MEL-5, 0.371 µM (active); with MDA-MB-231 it was 1.11 µM (active); in the assay with Malme-3M, 1.95 µM (inactive). The results for the GI50 with M14 and in the assay on UACC-62 were 0.277 µM (active) and 0.792 µM (active), respectively.

The record behind these values is ChEMBL document CHEMBL1201862, “PubChem BioAssay data set” (2004).
